“And” between values parts separate entries of the source, which are not always exact repeats. Identical values can stand only once.
Key:
[1] = target: T1, RSV L+P complex (Human respiratory syncytial virus A, UniProt P28887); test: Surface plasmon resonance assay; format: binding, Human RSV (strain A2); details: SPR, top concentration 1 mM
[2] = target: RSV MTase-CTD protein (Human respiratory syncytial virus A, UniProt P28887); test: Methyltransferase filter-binding assay; format: biochemical; details: three technical replicates
Chain of RSV MTase-CTD protein (P28887 1755-2165): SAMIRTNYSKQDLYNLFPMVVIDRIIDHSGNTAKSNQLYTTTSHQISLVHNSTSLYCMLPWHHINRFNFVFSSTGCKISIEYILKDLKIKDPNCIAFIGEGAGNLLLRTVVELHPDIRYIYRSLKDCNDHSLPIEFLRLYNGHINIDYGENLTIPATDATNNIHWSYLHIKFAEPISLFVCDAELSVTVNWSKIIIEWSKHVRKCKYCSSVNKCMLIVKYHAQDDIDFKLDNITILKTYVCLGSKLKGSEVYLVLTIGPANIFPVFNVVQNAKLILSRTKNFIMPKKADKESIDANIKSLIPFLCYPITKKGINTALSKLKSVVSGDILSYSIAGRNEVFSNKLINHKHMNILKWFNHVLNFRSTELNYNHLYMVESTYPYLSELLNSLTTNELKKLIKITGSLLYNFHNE

[3] = target: T1, RSV L+P complex; format: biochemical

T1 sequence (P03421 whole entry): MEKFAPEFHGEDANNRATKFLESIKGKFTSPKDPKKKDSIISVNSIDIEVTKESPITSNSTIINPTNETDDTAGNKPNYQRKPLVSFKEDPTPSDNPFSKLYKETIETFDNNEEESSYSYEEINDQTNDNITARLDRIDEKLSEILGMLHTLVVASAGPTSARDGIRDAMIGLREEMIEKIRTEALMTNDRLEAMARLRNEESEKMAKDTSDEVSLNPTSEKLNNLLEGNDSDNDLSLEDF
T1 sequence (P28887 whole entry): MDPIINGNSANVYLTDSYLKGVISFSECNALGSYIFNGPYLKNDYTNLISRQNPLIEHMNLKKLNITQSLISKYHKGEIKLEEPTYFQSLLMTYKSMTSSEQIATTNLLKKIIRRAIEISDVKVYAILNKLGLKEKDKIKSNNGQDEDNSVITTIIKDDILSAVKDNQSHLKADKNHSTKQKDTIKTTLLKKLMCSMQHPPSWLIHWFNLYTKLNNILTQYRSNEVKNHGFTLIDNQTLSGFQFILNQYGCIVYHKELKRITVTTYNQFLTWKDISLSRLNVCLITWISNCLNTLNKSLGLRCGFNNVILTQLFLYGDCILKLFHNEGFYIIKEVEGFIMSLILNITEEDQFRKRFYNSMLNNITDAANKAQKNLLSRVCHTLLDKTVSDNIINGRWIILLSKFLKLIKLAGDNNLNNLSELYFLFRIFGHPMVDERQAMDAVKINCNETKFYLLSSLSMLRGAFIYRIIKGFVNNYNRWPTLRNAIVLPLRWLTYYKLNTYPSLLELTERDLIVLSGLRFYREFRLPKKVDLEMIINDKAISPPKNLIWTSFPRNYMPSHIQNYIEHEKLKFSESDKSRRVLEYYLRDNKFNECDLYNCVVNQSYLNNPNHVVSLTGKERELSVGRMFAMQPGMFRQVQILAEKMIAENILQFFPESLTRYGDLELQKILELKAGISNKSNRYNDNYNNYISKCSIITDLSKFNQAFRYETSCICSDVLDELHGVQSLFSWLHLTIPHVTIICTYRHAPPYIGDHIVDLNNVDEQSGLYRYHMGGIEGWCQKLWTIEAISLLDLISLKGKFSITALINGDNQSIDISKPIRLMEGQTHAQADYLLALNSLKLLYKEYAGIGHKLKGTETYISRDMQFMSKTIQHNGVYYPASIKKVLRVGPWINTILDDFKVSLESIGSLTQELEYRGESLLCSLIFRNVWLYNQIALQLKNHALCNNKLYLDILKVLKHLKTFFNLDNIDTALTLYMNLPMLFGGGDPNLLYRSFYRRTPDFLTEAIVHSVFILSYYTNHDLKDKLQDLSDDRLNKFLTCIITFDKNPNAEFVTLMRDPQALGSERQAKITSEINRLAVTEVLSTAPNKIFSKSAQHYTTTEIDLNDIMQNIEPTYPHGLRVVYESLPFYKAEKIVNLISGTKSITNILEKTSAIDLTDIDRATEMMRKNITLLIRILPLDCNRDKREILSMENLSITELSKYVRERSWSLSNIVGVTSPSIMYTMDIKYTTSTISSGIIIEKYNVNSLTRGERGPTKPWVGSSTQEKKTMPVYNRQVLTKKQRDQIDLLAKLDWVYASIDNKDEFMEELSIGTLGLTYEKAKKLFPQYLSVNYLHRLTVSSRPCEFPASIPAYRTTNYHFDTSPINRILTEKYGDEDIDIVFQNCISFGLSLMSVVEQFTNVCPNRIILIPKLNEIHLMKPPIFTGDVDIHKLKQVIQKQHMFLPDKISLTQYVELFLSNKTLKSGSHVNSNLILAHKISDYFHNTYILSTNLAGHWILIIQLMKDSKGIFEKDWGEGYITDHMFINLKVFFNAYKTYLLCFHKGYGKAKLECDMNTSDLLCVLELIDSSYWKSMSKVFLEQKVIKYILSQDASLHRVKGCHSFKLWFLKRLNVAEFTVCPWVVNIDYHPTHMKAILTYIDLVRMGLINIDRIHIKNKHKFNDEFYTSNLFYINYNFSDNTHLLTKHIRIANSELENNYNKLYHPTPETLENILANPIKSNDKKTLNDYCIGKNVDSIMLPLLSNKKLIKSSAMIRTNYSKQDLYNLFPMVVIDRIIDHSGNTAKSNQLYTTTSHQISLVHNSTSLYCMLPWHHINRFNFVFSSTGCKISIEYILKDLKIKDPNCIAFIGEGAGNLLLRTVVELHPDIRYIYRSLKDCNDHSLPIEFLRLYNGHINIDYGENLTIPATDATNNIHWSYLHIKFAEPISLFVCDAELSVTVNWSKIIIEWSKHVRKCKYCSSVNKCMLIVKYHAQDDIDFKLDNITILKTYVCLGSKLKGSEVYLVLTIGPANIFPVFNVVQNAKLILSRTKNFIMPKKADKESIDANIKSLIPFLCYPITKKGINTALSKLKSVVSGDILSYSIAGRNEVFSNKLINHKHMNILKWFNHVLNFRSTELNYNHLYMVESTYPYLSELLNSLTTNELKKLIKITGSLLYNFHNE

| SMILES | binding to purified RSV L+P (in words) [1] | MTase activity, RNA+compound+RSV MTase-CTD, CPM ([2]; 50 uM) | MTase activity, RNA+compound+RSV MTase-CTD, CPM ([2]; 200 uM) | MTase activity, RNA+compound+RSV L+P, CPM [3] |
| --- | --- | --- | --- | --- |
| Nc1nc2c(ncn2[C@@H]2O[C@H](COP(=O)(O)OP(=O)(O)O)[C@@H](O)[C@H]2O)c(=O)[nH]1 [GDP, guanosine diphosphate] | did not bind |  |  |  |
| O=C(NC1CC1)c1cc2c(s1)-c1ccccc1N(C(=O)c1ccc(NC(=O)c3cccnc3N3CCC4(CC3)COC4)cc1)CC2 [AZ-27, reference compound] |  | 28343 CPM and 26589 CPM and 27119 CPM | 32944 CPM and 32511 CPM and 35155 CPM | 10786 CPM and 11483 CPM and 10556 CPM and 15234 CPM and 15171 CPM and 17548 CPM |

Reference: paper PMC10590419, “Structural and mechanistic insights into the inhibition of respiratory syncytial virus polymerase by a non-nucleoside inhibitor” (Communications Biology, 2023)
